# Results reported in PubChem BioAssay (NCI).
#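 Growth conditions: 96-well plates. Treatment: test compound, 48 hours, 5 concentrations. Analysis: linear interpolation between bracketing concentrations; unreached endpoints set to highest concentration. Definition used: TGI = concentration required for complete inhibition of growth.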
# Columns and labels:
# Test in all cases: NCI tumour cell line growth inhibition, 48 h
# [1] = tested on: SK-MEL-2 melanoma
# [2] = tested on: HCC-2998 colon
# [3] = tested on: A498 renal
# [4] = tested on: IGROV1 ovarian
# [5] = tested on: MOLT-4 leukemia
# [6] = tested on: OVCAR-3 ovarian
# [7] = tested on: UACC-257 melanoma
# [8] = tested on: CAKI-1 renal
# [9] = tested on: HOP-62 NSCLC
# [10] = tested on: 786-0 renal
# [11] = tested on: M14 melanoma
# [12] = tested on: CCRF-CEM leukemia
# [13] = tested on: HT29 colon
# [14] = tested on: SW-620 colon
# [15] = tested on: LXFL 529 NSCLC
# [16] = tested on: RXF 393 renal
# [17] = tested on: SF-295 CNS
# [18] = tested on: SN12C renal
# [19] = tested on: LOX IMVI melanoma
# [20] = tested on: OVCAR-8 ovarian
# [21] = tested on: DMS 273 small cell lung
# [22] = tested on: HOP-18 NSCLC
# [23] = tested on: OVCAR-4 ovarian
# [24] = tested on: NCI-H23 lung
# [25] = tested on: U251 CNS
# [26] = tested on: HL-60(TB) leukemia
# [27] = tested on: UACC-62 melanoma
# [28] = tested on: SNB-75 CNS
# [29] = tested on: A549 NSCLC
# [30] = tested on: NCI-H226 lung
# [31] = tested on: SNB-78 CNS
# [32] = tested on: HCT-15 colon
# [33] = tested on: NCI-H522 lung
# [34] = tested on: TK-10 renal
# [35] = tested on: MALME-3M melanoma
# [36] = tested on: NCI-H460 lung
# [37] = tested on: UO-31 renal
# [38] = tested on: DLD-1 colon
# [39] = tested on: RPMI-8226 leukemia
# [40] = tested on: SR leukemia
# [41] = tested on: COLO 205 colon
# [42] = tested on: K-562 leukemia
# [43] = tested on: KM12 colon
# [44] = tested on: KM20L2 colon
# [45] = tested on: SNB-19 CNS
# [46] = tested on: SK-MEL-5 melanoma
# [47] = tested on: HCT-116 colon
# [48] = tested on: DMS 114 small cell lung
# [49] = tested on: HOP-92 NSCLC
# [50] = tested on: M19-MEL melanoma
# [51] = tested on: SK-OV-3 ovarian
# [52] = tested on: SF-268 CNS
# [53] = tested on: EKVX NSCLC
# [54] = tested on: SK-MEL-28 melanoma
# [55] = tested on: OVCAR-5 ovarian
# [56] = tested on: ACHN renal
# [57] = tested on: SF-539 CNS
# [58] = tested on: XF 498 CNS
compound,measurement,setting,value
CCc1cccc(CC)c1NC(=O)/C(Cl)=C(/Cl)C(=O)O,TGI,[1],> 100 µM
same,TGI,[2],> 75.9 µM
same,TGI,[3],> 100 µM
same,TGI,[4],50.4 µM
same,TGI,[5],> 86.9 µM
same,TGI,[6],48.1 µM
same,TGI,[7],48.3 µM
same,TGI,[8],32.6 µM
same,TGI,[9],> 100 µM
same,TGI,[10],> 56.2 µM
same,TGI,[11],35.9 µM
same,TGI,[12],48.8 µM
same,TGI,[13],53.7 µM
same,TGI,[14],46.8 µM
same,TGI,[15],20.9 µM
same,TGI,[16],47.2 µM
same,TGI,[17],> 100 µM
same,TGI,[18],45.9 µM
same,TGI,[19],> 100 µM
same,TGI,[20],33.3 µM
same,TGI,[21],> 85.8 µM
same,TGI,[22],49.5 µM
same,TGI,[23],31.1 µM
same,TGI,[24],66.5 µM
same,TGI,[25],> 69.8 µM
same,TGI,[26],> 67.3 µM
same,TGI,[27],> 66.7 µM
same,TGI,[28],> 81.6 µM
same,TGI,[29],> 89.6 µM
same,TGI,[30],> 100 µM
same,TGI,[31],65.8 µM
same,TGI,[32],37.3 µM
same,TGI,[33],29.1 µM
same,TGI,[34],50.2 µM
same,TGI,[35],36.7 µM
same,TGI,[36],> 100 µM
same,TGI,[37],47.3 µM
same,TGI,[38],49.1 µM
same,TGI,[39],> 79.4 µM
same,TGI,[40],> 73.6 µM
same,TGI,[41],30.3 µM
same,TGI,[42],> 94.9 µM
same,TGI,[43],> 100 µM
same,TGI,[44],> 71 µM
same,TGI,[45],> 100 µM
same,TGI,[46],> 100 µM
same,TGI,[47],50.3 µM
same,TGI,[48],40.9 µM
same,TGI,[49],41.4 µM
same,TGI,[50],46.5 µM
same,TGI,[51],> 100 µM
same,TGI,[52],64.1 µM
same,TGI,[53],> 68.5 µM
same,TGI,[54],50.9 µM
same,TGI,[55],> 100 µM
same,TGI,[56],47.6 µM
same,TGI,[57],49.2 µM
same,TGI,[58],46.5 µM
